Experimental data published in patent US8933075B2, “Compounds useful as antiviral agents, compositions, and methods of use” (priority 2010, dated 2015).

What was measured:
A/Udorn/72 (H3N2) virus = assay: Plaque assay in MDCK cells: EC50 by reduction of plaque number; assay type: cell-based, influenza virus; settings: MDCK
pseudoHIV particles = assay: HIV pseudovirus assay in X4 cells (luciferase); assay type: cell-based, HIV-1; settings: Human immunodeficiency virus 1, read-out: HIV EC50
Procedure: A plasmid coding the HIV-1 genome, deleting the envelope protein gene and with a luciferase gene inserted, and a plasmid coding the envelope protein gene were cotransfected into 293T cells. After 48 hr, the supernatant containing pseudoHlV particles was collected for transducing assay. In 96 well plates, X4 cells were plated and incubated till confluent. The pseudoHlV particles were incubated with various concentrations of inhibitor compounds for one hour in room temperature. The particles were then used for tranducing X4 cells. The transduced X4 cells were lysed after 48 hr and the luciferase activity was measured in a luminometer.

[1] = system: influenza viruses that have HA subtypes H1 and H2; settings: cited from earlier work
[2] = system: influenza viruses that have HA subtype H3; settings: cited from earlier work
influenza virus = settings: cited from earlier work
H3 viruses = settings: cited from earlier work
H1 and H2 viruses = settings: cited from earlier work

Compound | EC50 (A/Udorn/72 (H3N2) virus) [µM] | EC50 (pseudoHIV particles) [µM] | further results
COc1ccc(-c2ccc(/C=C3\SC(=S)N(C4C5CC6CC(C5)CC4C6)C3=O)o2)cc1OCC(=O)O (stereo not drawn) [Compound 33] | < 0.1 | < 0.1 | –
COc1cc(O)cc(-c2cc(CCCO)c(/C=C3\SC(=S)N(C4CC5CCC4C5)C3=O)o2)c1 (stereo not drawn) [Compound 101] | < 0.1 | < 0.1 | –
COc1cc(OC)cc(-c2cc(CCCCO)c(/C=C3\SC(=S)N(C4CC5CCC4C5)C3=O)o2)c1 (stereo not drawn) [Compound 113] | < 0.1 | < 0.1 | –
COc1cc(OC)cc(-c2cc(CCCNC(=O)[C@@H](N)CC(N)=O)c(/C=C3\SC(=S)N(C4CC5CCC4C5)C3=O)o2)c1 (stereo partly drawn) [Compound 168] | < 0.1 | < 0.1 | –
COC(=O)c1cc(-c2ccc(/C=C3\SC(=S)N(C4CC5CCC4C5)C3=O)o2)cc(OC)c1OC (stereo not drawn) [Compound 31] | < 0.1 | < 0.1 | –
COc1cc(O)cc(-c2cc(CCCNC(=O)[C@@H](N)CC(N)=O)c(/C=C3\SC(=S)N(C4CC5CCC4C5)C3=O)o2)c1 (stereo partly drawn) [Compound 174] | < 0.1 | < 0.1 | –
C[C@@H]1CCC[C@@H]2C[C@@H](NC(=O)c3cc(Cl)c(N)cc3O)CCN21 [BMY-27709] | – | – | EC50 [1]: 6 to 8 µM; activity against H3 [2]: not H3
COc1cc(OC)cc(-c2cc(CCC(=O)O)c(/C=C3\SC(=S)N(C4C5CC6CC(C5)CC4C6)C3=O)o2)c1 (stereo not drawn) [Compound 129] | < 0.1 | < 0.1 | –
COc1cc(OC)cc(-c2cc(CCCNC(=O)[C@@H](N)Cc3ccc(O)cc3)c(/C=C3\SC(=S)N(C4CC5CCC4C5)C3=O)o2)c1 (stereo partly drawn) [Compound 167] | < 0.1 | < 0.1 | –
COc1cc(OC)cc(-c2cc(CCCOC(=O)[C@@H](N)Cc3ccc(O)cc3)c(/C=C3\SC(=S)N(C4CC5CCC4C5)C3=O)o2)c1 (stereo partly drawn) [Compound 151] | < 0.1 | < 0.1 | –
COc1cc(OCC(=O)O)cc(-c2ccc(/C=C3\SC(=S)N(C4CC5CCC4C5)C3=O)o2)c1 (stereo not drawn) [Compound 37] | < 0.1 | < 0.1 | –
O=C1/C(=C/c2oc(-c3ccccc3)cc2CO)SC(=S)N1C1C2CC3CC(C2)CC1C3 (stereo not drawn) [Compound 92] | < 0.1 | 0.1 to 0.25 | –
COc1cc(OC)cc(-c2cc(CCCNC(=O)[C@H](CC(N)=O)NC(=O)OC(C)(C)C)c(/C=C3\SC(=S)N(C4CC5CCC4C5)C3=O)o2)c1 (stereo partly drawn) [Compound 156] | < 0.1 | < 0.1 | –
O=C1/C(=C/c2oc(-c3ccc(Cl)cc3)cc2CCCO)SC(=S)N1C1CC2CCC1C2 (stereo not drawn) [Compound 99] | < 0.1 | < 0.1 | –
CCOC(=O)COc1cc(-c2ccc(/C=C3\SC(=S)N(C4CC5CCC4C5)C3=O)o2)ccc1OC (stereo not drawn) [Compound 22] | < 0.1 | < 0.1 | –
COc1cc(OC)cc(-c2cc(CCCNC(=O)[C@H](Cc3ccccc3)NC(=O)OC(C)(C)C)c(/C=C3\SC(=S)N(C4CC5CCC4C5)C3=O)o2)c1 (stereo partly drawn) [Compound 157] | < 0.1 | < 0.1 | –

Compound | EC50 (A/Udorn/72 (H3N2) virus) [µM] | EC50 (pseudoHIV particles) [µM] | further results
COc1ccc(-c2ccc(/C=C3\SC(=S)N(C4CC5CCC4C5)C3=O)o2)cc1C(=O)N[C@@H](Cc1ccc(O)cc1)C(=O)O (stereo partly drawn) [Compound 86] | < 0.1 | < 0.1 | –
NCCCc1cc(-c2ccc(Cl)cc2)oc1/C=C1\SC(=S)N(C2C3CC4CC(C3)CC2C4)C1=O (stereo not drawn) [Compound 125] | < 0.1 | < 0.1 | –
COc1cc(O)cc(-c2cc(CCCNC(=N)N)c(/C=C3\SC(=S)N(C4CC5CCC4C5)C3=O)o2)c1 (stereo not drawn) [Compound 194] | < 0.1 | < 0.1 | –
COc1cc(OC)cc(-c2cc(CCCN)c(/C=C3\SC(=S)N(C4CC5CCC4C5)C3=O)o2)c1 (stereo not drawn) [Compound 120] | < 0.1 | < 0.1 | –
OC(CCN1CCCCC1)(c1ccccc1)C1C2CC3C(C2)C31 (stereo not drawn) [Triperiden] | – | – | concentration inhibiting influenza virus replication (influenza virus): 20 µg/mL
COc1cc(OC)cc(-c2cc(CCCN)c(/C=C3\SC(=S)N(C4C5CC6CC(C5)CC4C6)C3=O)o2)c1 (stereo not drawn) [Compound 121] | < 0.1 | < 0.1 | –
O=C1/C(=C/c2oc(-c3ccc(F)cc3)cc2CCCO)SC(=S)N1C1C2CC3CC(C2)CC1C3 (stereo not drawn) [Compound 103] | < 0.1 | < 0.1 | –
COc1cc(OC)cc(-c2cc(CCCn3nnc(CO)c3CO)c(/C=C3\SC(=S)N(C4CC5CCC4C5)C3=O)o2)c1 (stereo not drawn) [Compound 200, (Z)-3-(bicyclo[2.2.1]heptan-2-yl)-5-((3-(3-(4′,5′-bis(hydroxymethyl)-1H-1′,2′,3′-triazol-1-yl)propyl)-5-(3′,5′-dimethoxyphenyl)furan-2-yl)methylene)-2-thioxothiazolidin-4-one] | < 0.1 | < 0.1 | –
CCOC(=O)COc1cc(-c2ccc(/C=C3\SC(=S)N(C4CC5CCC4C5)C3=O)o2)cc(OC)c1OC (stereo not drawn) [Compound 29] | < 0.1 | < 0.1 | –
O=C1/C(=C/c2oc(-c3ccc(Cl)cc3)cc2CCCN2CCNCC2)SC(=S)N1C1CC2CCC1C2 (stereo not drawn) [Compound 186] | < 0.1 | < 0.1 | –
COc1cc(OCC(=O)N[C@@H](Cc2ccccc2)C(=O)O)cc(-c2ccc(/C=C3\SC(=S)N(C4CC5CCC4C5)C3=O)o2)c1 (stereo partly drawn) [Compound 83] | < 0.1 | < 0.1 | –
COc1cc(OC)cc(-c2cc(CCCO)c(/C=C3\SC(=S)N(C4C5CC6CC(C5)CC4C6)C3=O)o2)c1 (stereo not drawn) [Compound 95] | < 0.1 | < 0.1 | –
COc1cc(OC)cc(-c2cc(CCCNC(=N)N)c(/C=C3\SC(=S)N(C4CC5CCC4C5)C3=O)o2)c1 (stereo not drawn) [Compound 195] | < 0.1 | < 0.1 | –
COc1cc(OC)cc(-c2ccc(/C=C3\SC(=S)N(C4C5CC6CC(C5)CC4C6)C3=O)o2)c1 (stereo not drawn) [Compound 20] | < 0.1 | < 0.1 | –
Stachyflin | – | – | activity against H3 viruses (H3 viruses): not H3; EC50 (H1 and H2 viruses): μM range
COc1cc(OC)cc(-c2cc(CCCn3nnc(CO)c3CO)c(/C=C3\SC(=S)N(C4C5CC6CC(C5)CC4C6)C3=O)o2)c1 (stereo not drawn) [Compound 201, (Z)-3-(adamantan-2-yl)-5-((3-(3-(4′,5′-bis(hydroxymethyl)-1H-1′,2′,3′-triazol-1-yl)propyl)-5-(3′,5′-dimetho-xyphenyl)furan-2-yl)methylene)-2-thioxothiazolidin-4-one] | < 0.1 | < 0.1 | –
